Experimental data published in patent publication US5834453A, “Methods for the manufacture and use of antimicrobial sterol conjugates” (Lehigh University, priority 1997, dated 1998).
≈ marks a conversion by molar mass, not a printed value. Entries after “also recorded” stand apart in the source; their conditions may differ.

Legend:
Cryptococcus neoformans = assay: MIC against clinical isolates; type: cell-based; details: 24 h; clinical isolates of Cryptococcus neoformans
Description: (§1) The antimicrobial activity of the compounds according to the present invention were compared with the results obtained for squalamine as reported in Proc. Nat. Acad. Sci. USA 90:1354 (1993), supra, the disclosure of which is incorporated in toto herein. The data reported in the following table is the minimum inhibitory concentration (MIC) required for complete inhibition of microbial growth. The MIC was determined utilizing known micro-broth dilution methods in which inocula of 10^6 /ml of the test organism were incubated in 0.5× trypticase soy broth at 35° C. for 24 hours. MIC's were also tested under various pH conditions, with calcium chloride or magnesium chloride, or with immobilized horse serum.
(§2) The numbers in parentheses contained in the table correspond to accession numbers with the American Type Culture Collection (reference strains were either obtained from the American Type Culture Collection or from the Microbiology Laboratory at Memorial Sloan-Kettering Cancer Center; Bacterial strains were maintained on Columbia 5% sheep blood agar plates, and fungi were maintained on Sabouraud Dextrose agar plates).

Aspergillus fumigatus = assay: MIC against clinical isolates; type: cell-based; details: 24 h; clinical isolates of Aspergillus fumigatus
Description: as §1, §2

[1] = Hemolytic activity, minimal hemolytic concentration (MHC); type: cell-based, sheep; details: sheep red blood cells, 24 hours at 37° C. in saline
Description: (§3) Hemolytic activity of the squalamine mimics according to the present invention were also studied by incubating sheep red blood cells for 24 hours at 37° C. in saline (final concentration of 0.5%) with or without respective concentrations of the squalamine mimics. The minimal hemolytic concentration (MHC) was determined as the lowest concentration of a mimic that raised visible hemolysis.

P. vulgaris (13315) = assay: MIC, micro-broth dilution; type: cell-based; details: Proteus vulgaris, 35° C., 24 hours, read-out: ANTIMICROBIAL ACTIVITY (MIC)
Description: as §1, §2

S. pyrogenes (19615) = assay: MIC, micro-broth dilution; type: cell-based; details: 24 h, read-out: ANTIMICROBIAL ACTIVITY (MIC)
Description: as §1, §2

S. epidermidis (12228) = assay: MIC, micro-broth dilution; type: cell-based; details: Staphylococcus epidermidis, 35° C., 24 hours, read-out: ANTIMICROBIAL ACTIVITY (MIC)
Description: as §1, §2

E. coli (25922) = assay: MIC, micro-broth dilution; type: cell-based; details: Escherichia coli, 35° C., 24 hours, read-out: ANTIMICROBIAL ACTIVITY (MIC)
Description: as §1, §2

S. agalactiae (13813) = assay: MIC, micro-broth dilution; type: cell-based; details: Streptococcus agalactiae, 35° C., 24 hours, read-out: ANTIMICROBIAL ACTIVITY (MIC)
Description: as §1, §2

S. aureus (25923) = assay: MIC, micro-broth dilution; type: cell-based; details: Staphylococcus aureus, 35° C., 24 hours, read-out: ANTIMICROBIAL ACTIVITY (MIC)
Description: as §1, §2

P. aeruginosa (2853) = assay: MIC, micro-broth dilution; type: cell-based; details: Pseudomonas aeruginosa, 24 h, read-out: ANTIMICROBIAL ACTIVITY (MIC)
Description: as §1, §2

S. aureus (29213) = assay: MIC, micro-broth dilution; type: cell-based; details: Staphylococcus aureus, 24 h, read-out: ANTIMICROBIAL ACTIVITY (MIC)
Description: as §1, §2

S. marcescens (13880) = assay: MIC, micro-broth dilution; type: cell-based; details: for MIC: Serratia marcescens, 24 h, read-out: ANTIMICROBIAL ACTIVITY (MIC)
Description: as §1, §2

C. albicans (90028) = assay: MIC, micro-broth dilution; type: cell-based; details: Candida albicans, 35° C., 24 hours, read-out: ANTIMICROBIAL ACTIVITY (MIC)
Description: as §1, §2

E. faecalis (29212) = assay: MIC, micro-broth dilution; type: cell-based; details: Enterococcus faecalis, 35° C., 24 hours, read-out: ANTIMICROBIAL ACTIVITY (MIC)
Description: as §1, §2

P. aeruginosa (10145) = assay: MIC, micro-broth dilution; type: cell-based; details: Pseudomonas aeruginosa, 35° C., 24 hours, read-out: ANTIMICROBIAL ACTIVITY (MIC)
Description: as §1, §2

K. pneumoniae (13883) = assay: MIC, micro-broth dilution; type: cell-based; details: Klebsiella pneumoniae, 24 h, read-out: ANTIMICROBIAL ACTIVITY (MIC)
Description: as §1, §2

E. cloacae (13047) = assay: MIC, micro-broth dilution; type: cell-based; details: Enterobacter cloacae, 35° C., 24 hours, read-out: ANTIMICROBIAL ACTIVITY (MIC)
Description: as §1, §2

E. faecium (T6480-9) = assay: MIC, micro-broth dilution; type: cell-based; details: Enterococcus faecium, 35° C., 24 hours, read-out: ANTIMICROBIAL ACTIVITY (MIC)
Description: as §1, §2

A. fumigatus (H1120) = assay: MIC, micro-broth dilution; type: cell-based; details: Aspergillus fumigatus, 35° C., 24 hours, read-out: ANTIMICROBIAL ACTIVITY (MIC)
Description: as §1, §2

S. pneumoniae (6305) = assay: MIC, micro-broth dilution; type: cell-based; details: Streptococcus pneumoniae, 35° C., 24 hours, read-out: ANTIMICROBIAL ACTIVITY (MIC)
Description: as §1, §2

C. neoformans (M68979) = assay: MIC, micro-broth dilution; type: cell-based; details: Cryptococcus neoformans, 24 h, read-out: ANTIMICROBIAL ACTIVITY (MIC)
Description: as §1, §2

Pseudomonas aeruginosa = assay: Bactericidal action; type: cell-based
[2] = tested on: various groups of microorganisms; assay: Antimicrobial activity (MIC), all microorganisms tested; type: cell-based
Description: as §1, §2

bacteria = assay: Loss of antimicrobial/bactericidal action in presence of albumin; type: cell-based; details: 12.5 μg/ml of SM-7, 40 mg/ml of bovine serum albumin
gram negative rods [3] = assay: Antimicrobial activity (MIC), gram negative rods; type: cell-based; details: of all the mimics tested
Description: as §1

Staphylococcus aureus = assay: Bactericidal action; type: cell-based
sheep red blood cells = assay: Hemolytic activity, minimal hemolytic concentration (MHC); type: cell-based
Description: as §3

S. aureus (H20809) = assay: MIC, micro-broth dilution; type: cell-based; details: Staphylococcus aureus, 24 h, read-out: ANTIMICROBIAL ACTIVITY (MIC)
Description: as §1, §2

C. neoformans (90012) = assay: MIC, micro-broth dilution; type: cell-based; details: Cryptococcus neoformans, 24 h, read-out: ANTIMICROBIAL ACTIVITY (MIC)
Description: as §1, §2

A. fumigatus (H29709) = assay: MIC, micro-broth dilution; type: cell-based; details: Aspergillus fumigatus, 35° C., 24 hours, read-out: ANTIMICROBIAL ACTIVITY (MIC)
Description: as §1, §2

Escherichia coli = assay: Bactericidal action; type: cell-based
gram negative rods [4] = assay: Enhancement of the antimicrobial activity of rifampin; type: cell-based; details: subinhibitory concentrations of SM-7

| SMILES | minimal hemolytic concentration (MHC) at 24 h [1] | MIC (P. vulgaris (13315)) | MIC (S. pyrogenes (19615)) | MIC (S. epidermidis (12228)) | MIC (E. coli (25922)) | MIC (S. agalactiae (13813)) | MIC (S. aureus (25923)) | MIC (P. aeruginosa (2853)) | MIC (S. aureus (29213)) | MIC (S. marcescens (13880)) | MIC (C. albicans (90028)) | MIC (E. faecalis (29212)) | MIC (P. aeruginosa (10145)) | MIC (K. pneumoniae (13883)) | MIC (E. cloacae (13047)) | MIC (E. faecium (T6480-9)) | MIC (A. fumigatus (H1120)) | MIC (S. pneumoniae (6305)) | MIC (C. neoformans (M68979)) | also measured |
| --- | --- | --- | --- | --- | --- | --- | --- | --- | --- | --- | --- | --- | --- | --- | --- | --- | --- | --- | --- | --- |
| C[C@H](C(=O)NCCCNCCCCNCCCN)[C@H]1CC[C@H]2[C@@H]3CC=C4C[C@@H](OS(=O)(=O)O)CC[C@]4(C)[C@H]3CC[C@]12C [SM-2, 23,24-bisnor-3β-ol-5-cholenic acid 3-sulfate spermine conjugate] | > 100 µg/mL | > 100 mg/L | 6.25 mg/L (≈ 10.2 µM) | 3.13 mg/L (≈ 5.12 µM) | 6.25 mg/L (≈ 10.2 µM) | > 100 mg/L | 12.5 mg/L (≈ 20.5 µM) | 3.13 mg/L (≈ 5.12 µM) | > 100 mg/L | > 100 mg/L | 12.5 mg/L (≈ 20.5 µM) | > 100 mg/L | 12.5 mg/L (≈ 20.5 µM) | 12.5 mg/L (≈ 20.5 µM) | > 100 mg/L | > 100 mg/L | 12.5 mg/L (≈ 20.5 µM) | > 100 mg/L | 3.13 mg/L (≈ 5.12 µM) | MIC (Cryptococcus neoformans): 3.13 mg/L (≈ 5.12 µM); MIC (Aspergillus fumigatus): 12.5 mg/L (≈ 20.5 µM) |
| C[C@H](CCC(=O)NCCCNCCCCNCCCN)[C@H]1CC[C@H]2[C@@H]3CC[C@@H]4C[C@H](O)CC[C@]4(C)[C@H]3C[C@H](O)[C@]12C [SM-7, deoxycholic acid-spermine conjugate] | 12.5 µg/mL | 3.13 mg/L (≈ 5.43 µM) | 0.78 mg/L (≈ 1.35 µM) | 0.78 mg/L (≈ 1.35 µM) | 3.13 mg/L (≈ 5.43 µM) | 3.13 mg/L (≈ 5.43 µM) | 1.56 mg/L (≈ 2.7 µM) | 3.13 mg/L (≈ 5.43 µM) | 1.56 mg/L (≈ 2.7 µM) | 25 mg/L (≈ 43.3 µM) | 3.13 mg/L (≈ 5.43 µM) | 3.13 mg/L (≈ 5.43 µM) | 6.25 mg/L (≈ 10.8 µM) | 3.13 mg/L (≈ 5.43 µM) | 12.5 mg/L (≈ 21.7 µM) | 6.25 mg/L (≈ 10.8 µM) | 12.5 mg/L (≈ 21.7 µM) | 3.13 mg/L (≈ 5.43 µM) | 1.56 mg/L (≈ 2.7 µM) | antibacterial action (bactericidal) (Pseudomonas aeruginosa): bactericidal; antimicrobial activity (in words) [2]: highly active; also recorded: more activity than SM-8, SM-14, and SM-22; inhibition of (bactericidal) activity by albumin (bacteria): completely inhibited; potency ranking against gram negative rods (gram negative rods [3]): most potent activity against gram negative rods of all the mimics tested; antibacterial action (bactericidal) (Staphylococcus aureus): bactericidal; hemolytic activity (in words) (sheep red blood cells): unwanted hemolytic activity; MIC (S. aureus (H20809)): 1.56 mg/L (≈ 2.7 µM); activity against S. marcescens (S. marcescens (13880); in words): found even against S. marcescens; also recorded: effective against S. marcescens; MIC (C. neoformans (90012)): 0.78 mg/L (≈ 1.35 µM); MIC (A. fumigatus (H29709)): 12.5 mg/L (≈ 21.7 µM); antibacterial action (bactericidal) (Escherichia coli): bactericidal; enhancement of antimicrobial activity of rifampin (gram negative rods [4]): markedly enhanced the antimicrobial activity of rifampin against gram negative rods |
